Each structure is given as a SMILES string. Some results are limits rather than exact numbers.

The assay addresses T1, ALDH1A3 (Homo sapiens, UniProt P47895).
T1 sequence (P47895 1-512): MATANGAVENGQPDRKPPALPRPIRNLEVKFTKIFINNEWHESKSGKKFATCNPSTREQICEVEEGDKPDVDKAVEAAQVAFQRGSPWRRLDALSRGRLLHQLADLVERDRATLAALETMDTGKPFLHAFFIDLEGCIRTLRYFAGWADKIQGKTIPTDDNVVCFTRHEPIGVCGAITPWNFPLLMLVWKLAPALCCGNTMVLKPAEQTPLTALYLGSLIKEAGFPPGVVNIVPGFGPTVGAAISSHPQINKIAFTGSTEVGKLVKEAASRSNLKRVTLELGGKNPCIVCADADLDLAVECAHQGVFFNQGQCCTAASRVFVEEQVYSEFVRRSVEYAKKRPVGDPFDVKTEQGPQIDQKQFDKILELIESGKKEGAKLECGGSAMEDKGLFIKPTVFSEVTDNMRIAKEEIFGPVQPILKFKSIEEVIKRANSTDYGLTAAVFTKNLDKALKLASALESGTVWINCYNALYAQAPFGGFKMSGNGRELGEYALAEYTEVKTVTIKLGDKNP
Kind of assay: ALDH1A3 cellular assay (ALDEFLUOR) in WM266.4 melanoma cells. It is filed as cell-based. Particulars: WM266.4 cells; 60 min incubation; percentage of ALDH-positive cells. An excerpt: Materials: WM266.4 cells were procured from ATCC. (WM266-4 is a metastatic human melanoma cell line.) The ALDEFLUOR™ Assay kit (cat. no. 01700) and Aldefluor buffer (cat. no. 01702) were procured from StemCell Technologies. Dulbecco's Modified Eagle Medium (DMEM), FluoroBrite DMEM, Glutamax and Hoechst 33342 were purchased from ThermoFisher. Verapamil was obtained from Fluorochem. FBS was obtained from Sigma. Echo Qualified 384-well low-dead-volume microplate and Echo Qualified 384-well polypropylene microplate were purchased from Labcyte, and the Microclear black sterile polystyrene microplate from Greiner Bio-One.
Method: Intracellular inhibition of ALDH1A3 was assessed using the ALDEFLUOR™ Assay kit. The activated ALDEFLUOR™ reagent, BODIPY-aminoacetaldehyde (BAAA), is a fluorescent non-toxic substrate for ALDH enzymes, which freely diffuses into intact and viable cells. In the presence of ALDH enzyme activity, BAAA is converted into BODIPY-aminoacetate (BAA), which is retained inside the cells. The amount of fluorescent reaction product is proportional to the ALDH activity in the cells and is measured using an imaging cytometer. Active efflux of the reaction product is inhibited by an efflux inhibitor (Verapamil) in the ALDEFLUOR™ Assay Buffer.
A frozen vial of cells was recovered into a T225 flask containing DMEM, high glucose, 10% FBS, 1% glutamax, 1% HEPES. The following day, media was changed and cells were ready for assay from 72 hours after recovery. Cells were transferred into FluoroBrite DMEM (plus 10% FBS, 1% glutamax and 1% HEPES) and diluted to 2.5×10^5 cells/mL. 30 μL of cells were added to each well to give 7500 cells/well and then incubated overnight at 37° C., 5% CO2. After overnight incubation, the media was aspirated and replaced by 20 μL substrate/Hoechst buffer solution. Each plate requires 9 mL of solution comprising, 9 mL ALDEFLUOR assay buffer, 18 μL BAAA substrate (final concentration 500 nM), 4.5 μL Hoechst 33342 (final concentration 5 μg/mL) and 4.5 μL Verapamil (final concentration 50 μM). Compounds were prepared for dosing using the Echo acoustic dispenser by aliquoting into a source plate and dosed directly onto the cell assay plate to give a 10 point dose response per compound ranging from 10 μM to 0.0005 μM final concentration in 3-fold dilution steps. Plates were then incubated for 60 minutes at 37° C., 5% CO2. The buffer was then aspirated and cells washed twice in ice-cold PBS. Plates were kept on ice and 30 μL of cold Aldefluor buffer with 50 μM verapamil dispensed per well. The plates were then imaged using the CellInsight fluorescent microscope. Hoechst fluorescence in the 405 nm channel indicated the nuclear area and this was used to define nuclei and then the surrounding cellular area. Fluorescence in the 488 nm channel of the defined cellular area indicates ALDH1A3 activity. The percentage of cells positive for ALDH activity was plotted versus compound concentration to generate EC50 values using curve fitting parameters defined in Dotmatics software.
`CN(CCOc1ccc2c(c1)CCC(=O)N2)C(CO)c1cccc(F)c1` (stereo not drawn) [ALDHI-3003, 6-[2-[[1-(3-fluorophenyl)-2-hydroxy-ethyl]-methyl-amino]ethoxy]-3,4-dihydro-1H-quinolin-2-one] registered an IC50 of 0.1 to 1 µM.
To `CN(CCOc1ccc2c(c1)CCC(=O)N2)Cc1cccc(F)c1` [ALDHI-3001, 6-[2-[(3-fluorophenyl)methyl-methyl-amino]ethoxy]-3,4-dihydro-1H-quinolin-2-one] belongs 0.1 to 1 µM; to `O=C1CCc2cc(OCCN3CCOCC3c3cccc(F)c3)ccc2N1` (stereo not drawn) [ALDHI-2031, 6-[2-[3-(3-fluorophenyl)morpholin-4-yl]ethoxy]-3,4-dihydro-1H-quinolin-2-one], < 0.1 µM; to `O=C1CCc2cc(NC(=O)c3scnc3-c3cccc(F)c3)ccc2N1` [ALDHI-1003, 4-(3-fluorophenyl)-N-(2-oxo-3,4-dihydro-1H-quinolin-6-yl)thiazole-5-carboxamide], < 0.1 µM.
For `CN(CCOc1ccc2c(c1)CCC(=O)N2)C(=O)c1cccc(F)c1` [ALDHI-3008, 3-fluoro-N-methyl-N-[2-[(2-oxo-3,4-dihydro-1H-quinolin-6-yl)oxy]ethyl]benzamide], the IC50 lay in the range of 0.1 to 1 µM.
Consider `O=C1CCc2cc(OCCN3CCCC3c3ccccc3F)ccc2N1` (stereo not drawn) [ALDHI-2002, 6-[2-[2-(2-fluorophenyl)pyrrolidin-1-yl]ethoxy]-3,4-dihydro-1H-quinolin-2-one], for which the IC50 was in the range of 1 to 10 µM.
To `Cn1cc(C2CCCN2CCOc2ccc3c(c2)SCC(=O)N3)cn1` (stereo not drawn) [ALDHI-2026, 7-[2-[2-(1-methylpyrazol-4-yl)pyrrolidin-1-yl]ethoxy]-4H-1,4-benzothiazin-3-one] belongs 1 to 10 µM; to `O=C1CCc2cc(NC(=O)c3sc(N4CCNCC4)nc3-c3cccc(F)c3)ccc2N1` [ALDHI-1005, 4-(3-fluorophenyl)-N-(2-oxo-3,4-dihydro-1H-quinolin-6-yl)-2-piperazin-1-yl-thiazole-5-carboxamide], < 0.1 µM; to `O=C1CCc2cc(NC(=O)c3scnc3-c3ccc(F)cc3)ccc2N1` [ALDHI-1017, 4-(4-fluorophenyl)-N-(2-oxo-1,2,3,4-tetrahydroquinolin-6-yl)thiazole-5-carboxamide], 0.1 to 1 µM.
`CC1CN(CCOc2ccc3c(c2)CCC(=O)N3)C(c2ccccc2)CO1` (mixture of isomers) [ALDHI-2042, 6-[2-(2-methyl-5-phenyl-morpholin-4-yl)ethoxy]-3,4-dihydro-1H-quinolin-2-one] showed an IC50 of 0.1 to 1 µM.
In the case of `O=C1CCc2cc(NC(=O)c3sc(N4CC(O)C4)nc3-c3cccc(F)c3)ccc2N1` [ALDHI-1004, 4-(3-fluorophenyl)-2-(3-hydroxyazetidin-1-yl)-N-(2-oxo-3,4-dihydro-1H-quinolin-6-yl)thiazole-5-carboxamide] it was < 0.1 µM; in that of `C[C@@H](c1ccccc1)N(CCO)CCOc1ccc2c(c1)CCC(=O)N2` [ALDHI-3007, 6-[2-[2-hydroxyethyl-[(1S)-1-phenylethyl]amino]ethoxy]-3,4-dihydro-1H-quinolin-2-one], 0.1 to 1 µM.
Regarding `O=C1CSc2cc(OCCN3CCCC3c3ccncc3)ccc2N1` (stereo not drawn) [ALDHI-2029, 7-[2-[2-(4-pyridyl)pyrrolidin-1-yl]ethoxy]-4H-1,4-benzothiazin-3-one], the IC50 lay in the range of 0.1 to 1 µM.
With `CC1Oc2cc(OCCN3CCCC3c3cccc(F)c3)ccc2NC1=O` (stereo not drawn) [ALDHI-2044, 7-[2-[2-(3-fluorophenyl)pyrrolidin-1-yl]ethoxy]-2-methyl-4H-1,4-benzoxazin-3-one], the IC50 was in the range of 0.1 to 1 µM.
`O=C1CSc2cc(OCCN3CCCC3c3ccccn3)ccc2N1` (stereo not drawn) [ALDHI-2027, 7-[2-[2-(2-pyridyl)pyrrolidin-1-yl]ethoxy]-4H-1,4-benzothiazin-3-one]: the IC50 was in the range of 1 to 10 µM.
For `Cc1noc(-c2ccccc2C(=O)Nc2ccc3c(c2)CCC(=O)N3)n1` [ALDHI-1008, 2-(3-methyl-1,2,4-oxadiazol-5-yl)-N-(2-oxo-1,2,3,4-tetrahydroquinolin-6-yl)benzamide], the half-maximal inhibitory concentration (IC50) was in the range of 0.1 to 1 µM.
In turn, `O=C1CCc2cc(NC(=O)c3ncsc3-c3cccc(F)c3)ccc2N1` [ALDHI-1014, 5-(3-fluorophenyl)-N-(2-oxo-3,4-dihydro-1H-quinolin-6-yl)thiazole-4-carboxamide] displayed an IC50 of 1 to 10 µM.
Regarding `CN(C)c1nc(-c2cccc(F)c2)c(C(=O)Nc2ccc3c(c2)CCC(=O)N3)s1` [ALDHI-1002, 2-(dimethylamino)-4-(3-fluorophenyl)-N-(2-oxo-3,4-dihydro-1H-quinolin-6-yl)thiazole-5-carboxamide], the IC50 was < 0.1 µM.
Turning to `O=C1CCCc2cc(OCCN3CCCC3c3cccc(F)c3)ccc2N1` (stereo not drawn) [ALDHI-2020, 7-[2-[2-(3-fluorophenyl)pyrrolidin-1-yl]ethoxy]-1,3,4,5-tetrahydro-1-benzazepin-2-one], the half-inhibitory concentration (IC50) is 0.1 to 1 µM.
For the compound `O=C1CCc2cc(OCCn3nccc3-c3cccc(F)c3)ccc2N1` [ALDHI-2023, 6-[2-[5-(3-fluorophenyl)pyrazol-1-yl]ethoxy]-3,4-dihydro-1H-quinolin-2-one], the 50% inhibitory concentration (IC50) was < 0.1 µM.
In turn, `CN(CCOc1ccc2c(c1)CCC(=O)N2)C(=O)c1cccnc1` [ALDHI-3013, N-methyl-N-[2-[(2-oxo-3,4-dihydro-1H-quinolin-6-yl)oxy]ethyl]pyridine-3-carboxamide] gave an IC50 of 1 to 10 µM.
Take `CC1(c2cccc(F)c2)CCCN1CCOc1ccc2c(c1)CCC(=O)N2` (stereo not drawn) [ALDHI-2037, 6-[2-[2-(3-fluorophenyl)-2-methyl-pyrrolidin-1-yl]ethoxy]-3,4-dihydro-1H-quinolin-2-one]: the IC50 is < 0.1 µM.
`O=C1CCc2cc(OCCN3CCCC3c3cc(F)cc(F)c3)ccc2N1` (stereo not drawn) [ALDHI-2032, 6-[2-[2-(3,5-difluorophenyl)pyrrolidin-1-yl]ethoxy]-3,4-dihydro-1H-quinolin-2-one]: the concentration for half-maximal inhibition (IC50) was < 0.1 µM.
On to `O=C1COc2cc(NC(=O)c3scnc3-c3cccc(F)c3)ccc2N1` [ALDHI-1016, 4-(3-fluorophenyl)-N-(3-oxo-4H-1,4-benzoxazin-7-yl)thiazole-5-carboxamide], for which the IC50 was < 0.1 µM.
On to `O=C1CCc2cc(OCCN3CCCC3c3ccc(F)c(F)c3)ccc2N1` (stereo not drawn) [ALDHI-2039, 6-[2-[2-(3,4-difluorophenyl)pyrrolidin-1-yl]ethoxy]-3,4-dihydro-1H-quinolin-2-one], for which the IC50 fell in the range of 0.1 to 1 µM.
In the case of `O=C1CCc2cc(OCCN3CC(O)CC3c3cccc(F)c3)ccc2N1` (mixture of isomers) [ALDHI-2035, 6-[2-[2-(3-fluorophenyl)-4-hydroxy-pyrrolidin-1-yl]ethoxy]-3,4-dihydro-1H-quinolin-2-one] it was < 0.1 µM.
`O=C1CCc2cc(OCCN(CCO)Cc3cccnc3)ccc2N1` [ALDHI-3005, 6-[2-[2-hydroxyethyl(3-pyridylmethyl)amino]ethoxy]-3,4-dihydro-1H-quinolin-2-one]: the IC50 lay in the range of 0.1 to 1 µM.
In the case of `CCn1cc(C2CCCN2CCOc2ccc3c(c2)CCC(=O)N3)cn1` (stereo not drawn) [ALDHI-2016, 6-[2-[2-(1-ethylpyrazol-4-yl)pyrrolidin-1-yl]ethoxy]-3,4-dihydro-1H-quinolin-2-one] it was 1 to 10 µM; in that of `O=C1CCc2cc(OCCN3CCC[C@H]3c3cccc(F)c3)ccc2N1` [ALDHI-2018, 6-[2-[(2S)-2-(3-fluorophenyl)pyrrolidin-1-yl]ethoxy]-3,4-dihydro-1H-quinolin-2-one], < 0.1 µM; in that of `CC1Cc2cc(OCCN3CCCC3c3cccc(F)c3)ccc2NC1=O` (stereo not drawn) [ALDHI-2048, 6-[2-[2-(3-fluorophenyl)pyrrolidin-1-yl]ethoxy]-3-methyl-3,4-dihydro-1H-quinolin-2-one], < 0.1 µM.

Source of the values: US20240174634A1, “Aldehyde Dehydrogenase Inhibitors and Their Therapeutic Use” (priority 2020, published 2024).
